Results from patent US5968479A, “Diagnostic marker” (Daiichi Pure Chemicals Co., Ltd., priority 1995, dated 1999).

Key:
[1] = Fluorescence spectra of labeling compounds; type: physicochemical
Protocol: Compound 5 (40 mg, 64 μmol) in DMF (1 ml) was added with N-hydroxysuccinic anhydride (8.8 mg, 76 μmol) and N,N'-dicyclohexylcarbodiimide (DCC, 26.4 mg, 0.128 mmol) and the mixture was allowed to react at 4° C. overnight. Ether (10 ml) was added to the reaction mixture and the resulting residue was washed three times with ether. The solid mass was dissolved in chloroform (400 μl), and the solution was added with 0.1M aqueous hydrochloric acid (200 μl) and stirred. Then, the chloroform layer was separated and washed three times with water. The chloroform solution was concentrated under reduced pressure to obtain Compound 6 as black green solid (a labeling compound of the formula (III)) (38 mg, yield 78.5%). MS (FAB) m/e=720(M^+); Fluorescence spectra: λex =769 nm, λem =820 nm (10% DMSO in water).
Compound 5 (20 mg, 32 μmol) in DMF (1 ml) was added with sodium N-hydroxysuccinic anhydride sulfonate (8.3 mg, 38 μmol) and N,N'-dicyclohexylcarbodiimide (13.2 mg, 64 μmol), and the mixture was allowed to react at 4° C. overnight and then filtered. Ether (10 ml) was added to the filtrate and the resulting residue was washed three times with ether. The solid mass was dissolved in […] (400 μl), and the solution was added with 0.1M aqueous hydrochloric acid (200 μl) and stirred. Then, the chloroform layer was separated and washed three times with water. The chloroform solution was concentrated under reduced pressure to obtain Compound 7 as black green solid (labeling compound of the formula (III), 17 mg, yield 66.4%). MS (FAB) m/e=822 (M^+ Na); Fluorescence spectra λex =769 nm, λem =820 nm (10% DMSO in water).
Compound 5 (20 mg, 32 μmol) in DMF (0.5 ml) was added with N-(2-(N'-maleimide)ethyl)piperazine dihydrochloride (PEM, 4.4 mg, 38 μmol), triethylamine (TEA, 20 μl, 0.146 mmol) and DCC (10.2 mg, 49 μmol), and the mixture was allowed to react at 4° C. overnight. Ether (10 ml) was added to the reaction mixture and the resulting residue was washed three times with ether. The solid mass was dissolved in chloroform (400 μl), and the solution was added with 0.1M aqueous hydrochloric acid (200 μl) and stirred. Then, the chloroform layer was separated and washed three times with water. The chloroform solution was concentrated under reduced pressure to obtain Compound 8 as black green solid (labeling compound of the formula (III), 20 mg, yield 70.5%). MS (FAB) m/e=814(M^+); Fluorescence spectra λex =773 nm, λem =821 nm (10% DMSO in water).
Compound 6 (20 mg, 26.4 μmol) in DMF (0.5 ml) was added with hydrazine monohydrochloride (9.0 mg, 0.131 mmol) and the mixture was allowed to react overnight. The reaction mixture was filtered and the filtrate was concentrated under reduced pressure. The residue was dissolved in chloroform (0.5 ml) and the chloroform solution was washed with water three times. The chloroform layer was concentrated under reduced pressure to obtain Compound 9 as black green solid (16 mg, yield 90.0%). MS (FAB) m/e=637(M^+); Fluorescence spectra: λex =771 nm, λem =820 nm (10% DMSO in water).
Compound 12 (30 mg, 41.8 μmol) in a 50 v/v % aqueous solution of THF (1 ml) was added with sodium N-hydroxysuccinic anhydride-sulfonate (16.8 mg, 77.4 μmol) and N,N'-dicyclohexylcarbodiimide (25.8 mg, 0.125 mmol), and the mixture was allowed to react at 4° C. overnight and then filtered. The filtrate was concentrated under reduced pressure at a temperature of 20° C. or less. The residue was added with ethyl acetate (10 ml) and the deposited crystals were further washed with ether three times. These crystals were dissolved in water (200 μl) and purified using a Sephadex LH20 column (eluent: water) to obtain Compound 13 as black green solid (labeling compound of the formula (III), 34 mg, yield 88.8%). MS (FAB) m/e=892(M^-); Fluorescence spectrum λex =771 nm, λem =822 nm (water). […]

[2] = Water solubility of labeling compounds before (zwitterion type) and after (double salt type) salt formation; type: physicochemical; conditions: for solubility: water, zwitterion type
Protocol: The above-obtained Compound 17 (100 mg, 0.11 mmol) was dissolved in methanol (2 ml) and the solution was added with a solution of sodium iodide (1 g, 6.7 mmol) in methanol (5 ml). The methanol solution was concentrated to a half of the volume and cooled to 4° C. overnight. The precipitated crystals were collected by filtration. The obtained green crystals were dried in a vacuum desiccator to give Compound 18 (labeling compound of the formula (V), 85 mg, yield 72%). Data of water-solubility and infrared absorption spectrum data (IR) were obtained before the formation of the salt with sodium iodide (zwitterion type) and after the salt formation. The iodide content was determined by the Schoniger method.
Indocyanine green-N-butanoic acid sulfosuccinimide ester (Compound 19) was prepared according to the method of Example 3. Compound 19 (150 mg, 0.17 mmol) was dissolved in methanol (3 ml) and the solution was added with a solution of sodium iodide (1.5 g, 10 mmol) in methanol (8 ml). The methanol was concentrated to a half of the volume and the concentrate was cooled to 4° C. overnight. The precipitated crystals were collected by filtration. The obtained green crystals were dried in a vacuum desiccator to give Compound 20 (labeling compound of the formula (V), 117 mg, yield 66%). Data of water-solubility and infrared absorption spectra data (IR) were obtained before and after the salt formation with sodium iodide. Iodine content was determined by the Schoniger method.
Indocyanine green-N-hexanoic acid sulfosuccinimide ester (Compound 21) was prepared according to the method of Example 3. Compound 21 (100 mg, 0.11 mmol) was dissolved in methanol (2 ml) and the solution was added with a solution of sodium perchlorate (0.3 g, 2.5 mmol) in methanol (20 ml). The methanol was concentrated to a quarter of the volume under reduced pressure and the concentrate was cooled to 4° C. overnight. The precipitated crystals were collected by filtration. The obtained green crystals were dried in a vacuum desiccator to give Compound 22 (labeling compound of the formula (V), 23 mg, yield 21%). Data of water-solubility and IR were obtained before and after the salt formation with sodium perchlorate.

SMILES: CC[N+]1=C(C=CC=CC=CC=C2N(CCCCCC(=O)ON3C(=O)CCC3=O)c3ccc4ccccc4c3C2(C)C)C(C)(C)c2c1ccc1ccccc21 [Compound 6]
- Fluorescence spectra λem ([1]; 10% DMSO in water): 820 nm
- Fluorescence spectra λex ([1]; 10% DMSO in water): 769 nm

SMILES: CC[N+]1=C(C=CC=CC=CC=C2N(CCCCCC(=O)ON3C(=O)CC(S(=O)(=O)O)C3=O)c3ccc4ccccc4c3C2(C)C)C(C)(C)c2c1ccc1ccccc21 (stereo not shown) [Compound 7]
- Fluorescence spectra λem ([1]; 10% DMSO in water): 820 nm
- Fluorescence spectra λex ([1]; 10% DMSO in water): 769 nm

SMILES: CC[N+]1=C(C=CC=CC=CC=C2N(CCCCCC(=O)N3CCN(CCN4C(=O)C=CC4=O)CC3)c3ccc4ccccc4c3C2(C)C)C(C)(C)c2c1ccc1ccccc21 [Compound 8]
- Fluorescence spectra λem ([1]; 10% DMSO in water): 821 nm
- Fluorescence spectra λex ([1]; 10% DMSO in water): 773 nm

SMILES: CC[N+]1=C(C=CC=CC=CC=C2N(CCCCCC(=O)NN)c3ccc4ccccc4c3C2(C)C)C(C)(C)c2c1ccc1ccccc21 [Compound 9]
- Fluorescence spectra λem ([1]; 10% DMSO in water): 820 nm
- Fluorescence spectra λex ([1]; 10% DMSO in water): 771 nm

SMILES: CC1(C)C(=CC=CC=CC=CC2=[N+](CCCS(=O)(=O)[O-])c3ccc4ccccc4c3C2(C)C)N(CCCCCC(=O)ON2C(=O)CC(S(=O)(=O)O)C2=O)c2ccc3ccccc3c21 (stereo not shown) [Compound 13]
- Fluorescence spectra λem ([1]; water): 822 nm
- Fluorescence spectra λex ([1]; water): 771 nm

SMILES: CC1(C)C(=CC=CC=CC=CC2=[N+](CCCCS(=O)(=O)[O-])c3ccc4ccccc4c3C2(C)C)N(CCCCCC(=O)ON2C(=O)CC(S(=O)(=O)O)C2=O)c2ccc3ccccc3c21 (stereo not shown) [Compound 17, indocyanine green-N-hexanoic acid sulfosuccinimide ester]
- Fluorescence spectra λem ([1]; water): 807 nm
- Fluorescence spectra λex ([1]; water): 768 nm

SMILES: CC1(C)C(=CC=CC=CC=CC2=[N+](CCCCS(=O)(=O)[O-])c3ccc4ccccc4c3C2(C)C)N(CCCCCC(=O)ON2C(=O)CC(S(=O)(=O)O)C2=O)c2ccc3ccccc3c21 (stereo not shown) [Compound 18]
- Water solubility ([2]; double salt type (sodium iodide)): 1 mg/0.8 ml

SMILES: CC1(C)C(=CC=CC=CC=CC2=[N+](CCCCS(=O)(=O)[O-])c3ccc4ccccc4c3C2(C)C)N(CCCC(=O)ON2C(=O)CC(S(=O)(=O)O)C2=O)c2ccc3ccccc3c21 (stereo not shown) [Compound 19, Indocyanine green-N-butanoic acid sulfosuccinimide ester]
- solubility [2]: ≥ 100 µg/mL

SMILES: CC1(C)C(=CC=CC=CC=CC2=[N+](CCCCS(=O)(=O)[O-])c3ccc4ccccc4c3C2(C)C)N(CCCCCC(=O)ON2C(=O)CC(S(=O)(=O)O)C2=O)c2ccc3ccccc3c21 (stereo not shown) [Compound 21, Indocyanine green-N-hexanoic acid sulfosuccinimide ester]
- solubility [2]: ≥ 100 µg/mL

SMILES: CC1(C)C(=CC=CC=CC=CC2=[N+](CCCCS(=O)(=O)[O-])c3ccc4ccccc4c3C2(C)C)N(CCCCCC(=O)ON2C(=O)CC(S(=O)(=O)O)C2=O)c2ccc3ccccc3c21 (stereo not shown) [Compound 22]
- Water solubility ([2]; double salt type (sodium perchlorate)): 1 mg/5 ml
